“And” between values parts separate entries of the source, which are not always exact repeats. Equal values may be shown once. Read-outs that look alike come from different tables or passages of the source.
Tests used:
[1] = Transport of diltiazem mucosal to serosal, normal sac method, rat duodenum; format: in vitro ADME; settings: rifampicin pretreatment
[2] = extensive presystemic metabolism; ref Kane et al. 2000; cited from earlier work
[3] = in vivo; settings: male, Wistar, rat, po, 15 mg/kg
[4] = Metabolic stability of diltiazem in rat liver S9 fraction; format: in vitro ADME
[5] = with GFJ; cited from earlier work
[6] = cited from earlier work
[7] = test system: P-gp; settings: chronic administration of GFJ; ref Varma 2005; cited from earlier work
[8] = multiple dose GFJ, listed as DTZ

COc1ccc([C@@H]2Sc3ccccc3N(CCN(C)C)C(=O)[C@@H]2OC(C)=O)cc1 [Diltiazem, diltiazem]
Increase of mean cumulative efflux of diltiazem vs control [1]: 35.79% | oral bioavailability [2]: 40–50% | T1/2 (diltiazem 15 mg/kg p.o with single dose GFJ): 31.2 min | AUC0–24 (AUC0–t), % inhibition (decrease) compared to control (multiple dose GFJ): 43.22% | Cmax, % inhibition (decrease) compared to control (multiple dose GFJ): 66.09% | T1/2, % change compared to control (footnote: % inhibition; text: increased) (multiple dose GFJ): 136.7% | Tmax, % change compared to control (footnote: % inhibition; text: increased) (multiple dose GFJ): 437.5% | AUC0–24 (AUC0–t), % inhibition (decrease) compared to control [8]: 43.2% | AUC0–∞, % inhibition (decrease) compared to control [8]: 35.1% | Cmax, % inhibition (decrease) compared to control [8]: 66.0% and 66.1% | Tmax, % change compared to control (footnote: % inhibition; text: increased) [8]: 437.5% | AUC0–24 (AUC0–t), % inhibition (decrease) compared to control (single dose GFJ): 1.26% | AUC0–∞, % inhibition (decrease) compared to control (single dose GFJ): 17.98% | Cmax, % inhibition (decrease) compared to control (single dose GFJ): 23.1% | T1/2, % change compared to control (footnote: % inhibition) (single dose GFJ): 6.12% | Tmax, % change compared to control (footnote: % inhibition) (single dose GFJ): 0% | Cmax, % inhibition (decrease) compared to control (single dose GFJ, listed as DTZ): 23.14% | T1/2, % change compared to control (footnote: % inhibition) (single dose GFJ, listed as DTZ): no statistically significant change | Tmax, % change compared to control (footnote: % inhibition) (single dose GFJ, listed as DTZ): no change | AUC(0-inf) ([3]; in vivo): 51.5 ng·h/mL | Tmax ([3]; plasma): 4.8 min | AUC(0-t) ([3]; plasma, AUC0–24, diltiazem 15 mg/kg p.o with water (control)): 43.6 ng·h/mL | AUC(0-t) ([3]; plasma, AUC0–24, diltiazem 15 mg/kg p.o, multiple dose GFJ): 24.8 ng·h/mL | AUC(0-inf) ([3]; plasma, AUC0–∞, diltiazem 15 mg/kg p.o with water (control)): 62.8 ng·h/mL | AUC(0-inf) ([3]; plasma, AUC0–∞, diltiazem 15 mg/kg p.o, multiple dose GFJ): 33.7 ng·h/mL | Cmax ([3]; plasma, Cmax, diltiazem 15 mg/kg p.o with water (control), n = 6): 121 ± 16.4 ng/mL | half-life ([3]; plasma, T1/2, diltiazem 15 mg/kg p.o with water (control)): 29.4 min | % metabolism of diltiazem ([4]; control rat liver S9, diltiazem alone 12.5 µM, 1 mg protein/ml, 37 °C, 0 min): 0% | % metabolism of diltiazem ([4]; control rat liver S9, diltiazem alone, 5 min): 36.61% | % metabolism of diltiazem ([4]; control rat liver S9, diltiazem alone, 10 min): 49.01% | % metabolism of diltiazem ([4]; control rat liver S9, diltiazem alone, 20 min): 60.15% | % metabolism of diltiazem ([4]; control rat liver S9, diltiazem alone, 30 min): 69.56% | % metabolism of diltiazem ([4]; control rat liver S9, diltiazem alone, 40 min): 77.47% | % metabolism of diltiazem ([4]; control rat liver S9, diltiazem alone, 60 min): 88.91% | % metabolism of diltiazem ([4]; control rat liver S9, diltiazem alone, 60 min, listed as DTZ): 88.9% | % metabolism of diltiazem ([4]; control rat liver S9, in presence of testosterone, 0 min): 0% | % metabolism of diltiazem ([4]; control rat liver S9, in presence of testosterone, 5 min): 9.19% | % metabolism of diltiazem ([4]; control rat liver S9, in presence of testosterone, 10 min): 16.32% | % metabolism of diltiazem ([4]; control rat liver S9, in presence of testosterone, 20 min): 29.91% | % metabolism of diltiazem ([4]; control rat liver S9, in presence of testosterone, 30 min): 35.67% | % metabolism of diltiazem ([4]; control rat liver S9, in presence of testosterone, 40 min): 38.16% | % metabolism of diltiazem ([4]; control rat liver S9, in presence of testosterone, 60 min): 41.25% | % metabolism of diltiazem ([4]; liver S9 from rats treated with GFJ orally for 7 days, 0 min): 0% | % metabolism of diltiazem ([4]; liver S9 from rats treated with GFJ orally for 7 days, 5 min): 12.79% | % metabolism of diltiazem ([4]; liver S9 from rats treated with GFJ orally for 7 days, 10 min): 21.11% | % metabolism of diltiazem ([4]; liver S9 from rats treated with GFJ orally for 7 days, 20 min): 28.49% | % metabolism of diltiazem ([4]; liver S9 from rats treated with GFJ orally for 7 days, 30 min): 31.38% | % metabolism of diltiazem ([4]; liver S9 from rats treated with GFJ orally for 7 days, 40 min): 40.76% | % metabolism of diltiazem ([4]; liver S9 from rats treated with GFJ orally for 7 days, 60 min): 48.26% | % metabolism of diltiazem ([4]; liver S9 from rats treated with GFJ orally for 7 days, 60 min, listed as DTZ): 48.3%

CCOC(=O)C1=C(COCCN)NC(C)=C(C(=O)OC)C1c1ccccc1Cl (stereo not drawn) [amlodipine]
increase of Tmax [5]: 115%

COC(=O)C1=C(C)NC(C)=C(C(=O)OC)C1c1ccccc1[N+](=O)[O-] [nifedipine]
reduction of area under the curve ([6]; intraduodenal, GFJ administered concomitantly, ref Mohri et al. 2000): 50% | increase of nifedipine levels ([6]; rats, long-term administration of GFJ, intraduodenally, ref Mohri et al. (2000)): approximately 1.62 times

CC(=O)O[C@H]1C(=O)[C@@]2(C)[C@H]([C@H](OC(=O)c3ccccc3)[C@]3(O)C[C@H](OC(=O)[C@H](O)[C@@H](NC(=O)c4ccccc4)c4ccccc4)C(C)=C1C3(C)C)[C@]1(OC(C)=O)CO[C@@H]1C[C@@H]2O [paclitaxel]
efflux ratio (ER) [7]: 20.8

From publication PMC6052858 (Die Pharmazie, 2009)
